Data on 16 molecules can be found in PubChem BioAssay (NCI).

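Each compound was tested at five concentrations against cells in 96-well plates for 48 hours. At the TGI there is no net growth.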

Some test systems named below: SNB-75 CNS; SK-OV-3 ovarian; ACHN renal; UO-31 renal; OVCAR-5 ovarian; A549 NSCLC; HT29 colon; NCI-H522 lung; TK-10 renal; SK-MEL-2 melanoma.
Holding throughout (test): growth of human tumour cells (NCI), 48 h

For the molecule `O=C(CNc1ccccc1[N+](=O)[O-])Nn1c(-c2ccccc2)nc2ccccc2c1=O`, the TGI in the assay with SNB-75 CNS is 41.8 µM; in the assay on SK-OV-3 ovarian, over 100 µM; in the assay on ACHN renal, 56.9 µM; in the assay with UO-31 renal it was 33.7 µM; in the assay on OVCAR-5 ovarian, 41.3 µM; in the assay with A549 NSCLC it was over 100 µM. In addition, the figures for the TGI in the assay with HT29 colon, with NCI-H522 lung and with TK-10 renal were 33.7 µM, over 10 µM and over 10 µM, respectively.
Turning to `O=C(Cc1ccccc1)Nn1c(-c2ccccc2)nc2ccccc2c1=O`, the TGI in the assay with SNB-75 CNS, in the assay on SK-OV-3 ovarian, in the assay with ACHN renal, in the assay on UO-31 renal, in the assay on OVCAR-5 ovarian and in the assay on A549 NSCLC was over 100 µM throughout. Further, the TGI with HT29 colon, in the assay on NCI-H522 lung and with TK-10 renal was over 100 µM each time.
In the case of `CC1C2(C)OC(=N)C(C#N)(C(c3cccc([N+](=O)[O-])c3)O2)C1(C#N)C#N` (centres undefined), the TGI in the assay on SNB-75 CNS, in the assay on SK-OV-3 ovarian, in the assay with ACHN renal, with UO-31 renal, with OVCAR-5 ovarian and in the assay on A549 NSCLC was over 100 µM each time. For the same molecule, the TGI was 74.6 µM in the assay on HT29 colon, 61.7 µM in the assay with SK-MEL-2 melanoma and over 100 µM with TK-10 renal.
Turning to `Cc1ccc2oc(=O)c(C(=O)Nc3nc(C45CC6CC(CC(C6)C4)C5)cs3)cc2c1`, the TGI with SNB-75 CNS, in the assay with ACHN renal, in the assay on UO-31 renal, with OVCAR-5 ovarian, with A549 NSCLC and in the assay with HT29 colon was over 100 µM each time. Further, the TGI in the assay on NCI-H522 lung was over 100 µM.
For `COC(=O)[C@H](Cc1c[nH]c2ccccc12)NC(=O)c1ccc(CNC(=O)/C=C/c2cccc(Oc3ccccc3)c2)cc1`, the TGI with SNB-75 CNS, in the assay on SK-OV-3 ovarian, in the assay with ACHN renal, in the assay on UO-31 renal, with OVCAR-5 ovarian and with A549 NSCLC was over 100 µM each time. The TGI with HT29 colon was over 100 µM; in the assay with SK-MEL-2 melanoma it was 82.8 µM; in the assay on TK-10 renal it was over 100 µM.
`CC(C)C(/C=C/c1ccc(Cl)c(Cl)c1)=N\NC(=O)N/N=C(/C=C/c1ccc(Cl)c(Cl)c1)C(C)C`: the TGI in the assay on SNB-75 CNS, in the assay with SK-OV-3 ovarian, in the assay with ACHN renal, in the assay with UO-31 renal, in the assay with OVCAR-5 ovarian and in the assay on HT29 colon was over 100 µM in each case. In addition, the TGI in the assay on NCI-H522 lung and with TK-10 renal was over 100 µM throughout.
On to `CCNC(=O)c1c(O)c2ccccc2[nH]c1=O`, for which the TGI with SNB-75 CNS, in the assay with ACHN renal, in the assay on UO-31 renal, in the assay with OVCAR-5 ovarian, with A549 NSCLC and in the assay with HT29 colon was over 100 µM throughout. Besides, the TGI with NCI-H522 lung and with TK-10 renal was over 100 µM each time.
Consider `CCOP(=O)(OCC)C(C#N)Cc1ccco1` (centres undefined), for which the TGI in the assay on SNB-75 CNS, in the assay with SK-OV-3 ovarian, in the assay with ACHN renal, in the assay on UO-31 renal, in the assay with OVCAR-5 ovarian and in the assay on A549 NSCLC was over 10 µM throughout. The TGI in the assay on HT29 colon, in the assay with SK-MEL-2 melanoma and with TK-10 renal was over 10 µM throughout.
With `CC(=O)N=C1N(/C=C2\C(=O)Oc3ccccc3C2=O)C(=O)/C(=C/c2ccc(Cl)cc2Cl)N1C`, the TGI with SNB-75 CNS, with SK-OV-3 ovarian, in the assay on ACHN renal, in the assay with OVCAR-5 ovarian, with A549 NSCLC and in the assay on HT29 colon was over 100 µM in each case. In addition, the TGI in the assay on NCI-H522 lung and with SK-MEL-2 melanoma was over 100 µM in each case.
With `CCOP(=O)(OCC)C(N)c1ccc(Cl)cc1` (centres undefined), the TGI in the assay with ACHN renal, with OVCAR-5 ovarian, with A549 NSCLC, in the assay on HT29 colon, in the assay with NCI-H522 lung and in the assay on SK-MEL-2 melanoma was over 100 µM throughout. The molecule further showed a TGI in the assay with TK-10 renal of over 100 µM.
Take `CC1=C(C(=O)c2ccccc2)C23C(=O)N(c4ccccc4)C(=O)C2=C(O)C=CC3(O)N1` (centres undefined): the TGI with SNB-75 CNS was 77.5 µM; in the assay with ACHN renal, 40.4 µM; in the assay with UO-31 renal it was 37.8 µM; with OVCAR-5 ovarian, over 100 µM; in the assay with A549 NSCLC, over 100 µM; in the assay on HT29 colon it was 32.3 µM. The TGI is 28.9 µM with NCI-H522 lung, 57.3 µM in the assay on SK-MEL-2 melanoma and over 100 µM with TK-10 renal.
For the molecule `CC(=O)NC1=C[C@@H]([C@H]2COC(C)(C)O2)OC1=O`, the TGI in the assay on SNB-75 CNS, in the assay on SK-OV-3 ovarian, with UO-31 renal, in the assay with OVCAR-5 ovarian, in the assay with A549 NSCLC and in the assay with HT29 colon was over 100 µM each time. The TGI in the assay on NCI-H522 lung and with SK-MEL-2 melanoma was over 100 µM throughout.
Regarding `Cc1ccc(/C(O)=C/c2nc3ccccc3s/c2=N/CS(=O)(=O)c2ccc(C)cc2)cc1`, the TGI in the assay with SNB-75 CNS, in the assay with SK-OV-3 ovarian, in the assay with ACHN renal, in the assay on OVCAR-5 ovarian, in the assay with A549 NSCLC and with HT29 colon was over 10 µM throughout. For the same molecule, the TGI with NCI-H522 lung and in the assay with TK-10 renal was over 10 µM in each case.
For the molecule `NC1=CN2c3ccccc3N(CC(=O)O)C2C=C1` (centres undefined), the TGI in the assay with SNB-75 CNS, in the assay with SK-OV-3 ovarian, in the assay on ACHN renal, with UO-31 renal, with OVCAR-5 ovarian and in the assay with A549 NSCLC was over 100 µM in each case. For the same molecule, the TGI in the assay on HT29 colon, with SK-MEL-2 melanoma and with TK-10 renal was over 100 µM throughout.
Take `Clc1ccc(C2Nc3ccccc3C3=NCCN32)cc1` (centres undefined): the TGI in the assay with SK-OV-3 ovarian is over 100 µM; in the assay on ACHN renal it was over 100 µM; in the assay with UO-31 renal, over 100 µM; in the assay with OVCAR-5 ovarian, over 100 µM; with A549 NSCLC, over 100 µM; in the assay with HT29 colon, 38.5 µM. For the same molecule, the TGI in the assay on SK-MEL-2 melanoma is 41.3 µM; with TK-10 renal, 39.5 µM.
In the case of `COC(C)(C)C1(O)CCC(C)CC1=O` (centres undefined), the TGI in the assay on SNB-75 CNS, in the assay with SK-OV-3 ovarian, in the assay with ACHN renal, in the assay on UO-31 renal, in the assay with OVCAR-5 ovarian and with A549 NSCLC was over 100 µM in each case. The TGI with HT29 colon, in the assay with NCI-H522 lung and in the assay on TK-10 renal was over 100 µM throughout.
